Laboratory results taken from US7351744B2, “Naphthalene derivatives as termite repellents and toxicants” (Board of Supervisors of Louisiana State University and …, priority 2003, dated 2008).

Key:
[1] = Longevity and volatility of the eleven chemicals; format: physicochemical; conditions: among the eleven chemicals tested
[2] = system: termites; experiment: Naphthalene-related compounds, choice of treated or untreated food or sand; format: in vivo; conditions: no repellency up to this concentration; data not shown
Protocol: When termites were given a choice of treated or untreated food or sand, all four chemicals were repellents at concentrations of 40 μg/cm^2 treated filter paper or 100 mg/kg treated sand. […] Methoxynaphthalenes were more volatile than acetonaphthones and could spread more effectively into the untreated chambers. […] (Data not shown)

[3] = system: Formosan subterranean termites; conditions: other tested naturally occurring compounds; cited from earlier work

Structure (SMILES): CC(=O)c1cccc2ccccc12 [1′-acetonaphthone]
- longevity [1]: highest longevity
- volatility [1]: lowest volatility

Structure (SMILES): c1ccc2ccccc2c1 [Napthalene, naphthalene]
- concentration showing repellency [2]: > 500 μg/cm^2

Structure (SMILES): C/C=C(\C)C(=O)O[C@H]1C[C@@H](OC(C)=O)[C@@]2(C(=O)OC)CO[C@H]3[C@@H](O)[C@@](C)([C@]45O[C@@]4(C)[C@H]4C[C@@H]5O[C@@H]5OC=C[C@@]54O)[C@H]4[C@]1(CO[C@]4(O)C(=O)OC)[C@@H]32 [azadirachtin]
- concentration inhibiting tunneling and feeding behaviors [3]: 500 mg/kg

Structure (SMILES): C=C(C)[C@@H]1CCC2=CC(=O)C[C@@H](C)[C@]2(C)C1 [nootkatone]
- concentration inhibiting tunneling and feeding behaviors [3]: 100 mg/kg
